In brackets after ≈: the same amount, converted by molar mass. Residues, ends and D or L forms follow the SMILES beside them. *: point of attachment. X1 = CC1(C(=O)*)CCC2(C)CCC3(C)C(=CC(=O)C4C5(C)CCC(O)C(C)(C)C5CCC43C)C2C1
Columns and labels:
[1] = system: human normal skin fibroblasts cell line BJ-1; experiment: Cytotoxicity against normal skin fibroblasts BJ-1; format: cell-based; conditions: BJ-1, 10 µg/mL
Method: The frequency and severity of side effects to normal cells at therapeutic levels is one of the most critical factors that distinguish different anticancer drugs from each other. Accordingly, the GA peptides 1–8 were furthermore screened for their cytotoxicity at 10 µg/mL against the human normal skin fibroblasts cell line BJ-1 to determine their safety upon normal cells (Figure 4).

[2] = system: Escherichia coli ATCC25922; experiment: Well diffusion assay, Escherichia coli; format: cell-based
Method: (§1) The newly synthesized peptides 1–8 (compound 6 was not tested) was evaluated for their antimicrobial activity of against three pathogenic Gram-positive bacteria (Staphylococcus aureus ATCC25923, Streptococcus pneumoniaRCMB 010010, and Micrococcus Luteus), three pathogenic Gram-negative bacteria viz. Escherichia coli ATCC25922, Pseudomonas aeruginosa ATCC7853, and Proteus vulgaris RCMB 010085, and the yeast Candida albicans using the well diffusion method. […] The obtained data were documented for each derivative as the average diameter of the inhibition zones (IZ) in mm for the bacterial or the yeast growth around the discs (Table 2). […] Although Micrococcus Luteus bacteria is a normal commensal of human skin and the upper respiratory tract, it acts as an opportunistic pathogen and has been associated with various diseases including meningitis, septic arthritis, and endocarditis. […] Antimicrobial activity of the tested chemical peptides was determined by the well diffusion method for pathogenic bacteria having Gram-positive bacteria (Staphylococcus aureus ATCC25923, Streptococcus pneumonia, and Micrococcus luteus) and Gram-negative bacteria (Escherichia coli ATCC25922, Pseudomonas aeruginosa ATCC7853, and Proteus sp.) and Candida albicans as human pathogen yeast using the well diffusion method.

[3] = system: Staphylococcus aureus ATCC25923; experiment: Well diffusion assay, Staphylococcus aureus; format: cell-based
Method: as §1

[4] = system: Streptococcus pneumonia RCMB 010010; experiment: Well diffusion assay, Streptococcus pneumonia; format: cell-based; conditions: Streptococcus pneumonia RCMB 010010, well diffusion
Method: as §1

[5] = system: Pseudomonas aeruginosa ATCC7853; experiment: Well diffusion assay, Pseudomonas aeruginosa; format: cell-based
Method: as §1

[6] = system: Micrococcus Luteus; experiment: Well diffusion assay, Micrococcus Luteus; format: cell-based
Method: as §1

[7] = system: human breast MCF-7 cancer cell line; experiment: MTT cytotoxicity assay, breast MCF-7 cancer cell line; format: cell-based; conditions: for cytotoxicity percentage: MCF-7, 10 µg/mL; for IC50: Homo sapiens, MCF7, MTT, mean of three replicates, read-out: IC50 (µg/mL) ± SD MCF-7
Method: (§2) Accordingly, all the newly synthesized GA-based peptides except 1 and 6 were screened for their cytotoxicity against three different human cancer cell lines: MCF-7, HCT-116, and HepG-2 cell lines at different concentrations (10, 5, 2.5, 1.25, and 0.625 µg/mL).
(§3) Human breast MCF-7, colon HCT-116, and liver HepG-2 carcinoma cell line were taken from Vacsera (Giza, Egypt). The culture was retained in RPMI 1640 medium with 1% antibiotic–antimycotic mixture (25 μg/mL amphotericin B, 10,000 μg/mL streptomycin sulfate, and 10,000 U/mL potassium penicillin), 1% L-glutamine, and complemented by 10% heat inactivated fetal bovine serum. […] This experiment was carried out according to the reported MTT assay method, and the absorbance was measured at 595 nm.

[8] = system: human colon HCT-116 cancer cell line; experiment: MTT cytotoxicity assay, colon HCT-116 cancer cell line; conditions: for IC50: Homo sapiens, HCT-116, read-out: IC50 (µg/mL) ± SD HCT-116
Method: as §2, §3

[9] = system: Proteus vulgaris RCMB 010085; experiment: Well diffusion assay, Proteus vulgaris; format: cell-based; conditions: Proteus vulgaris RCMB 010085, well diffusion
Method: as §1

[10] = system: Candida albicans; experiment: Well diffusion assay, Candida albicans; format: cell-based
Method: as §1

[11] = system: human liver cancer (HepG-2) cell line; experiment: MTT cytotoxicity assay, liver HepG-2 cancer cell line; format: cell-based
Method: as §2, §3

Row | SMILES | cytotoxic effect on normal cells BJ-1 [1] | Diameter of Inhibition Zone (mm) [2] | Diameter of Inhibition Zone (mm) [3] | Diameter of Inhibition Zone (mm) [4] | Diameter of Inhibition Zone (mm) [5] | Diameter of Inhibition Zone (mm) [6] | melting point | cytotoxicity percentage [7] | cytotoxicity percentage ([8]; HCT-116, 10 µg/mL) | IC50 [7] | IC50 [8] | Diameter of Inhibition Zone (mm) [9] | Diameter of Inhibition Zone (mm) [10] | cytotoxicity percentage ([8]; human, 10 µg/mL) | cytotoxicity percentage ([11]; HepG-2, 10 µg/mL) | IC50 ([11]; Homo sapiens, HepG2, MTT, mean of three replicates, read-out: IC50 (µg/mL) ± SD HepG-2)
1 | CCOC(=O)CNC(=O)CNC(=O)C1(C)CCC2(C)CCC3(C)C(=CC(=O)C4C5(C)CCC(O)C(C)(C)C5CCC43C)C2C1 (stereo not drawn) [Compound 1, Ethyl 2-(2-(10-Hydroxy-2,4a,6a,6b,9,9,12a-heptamethyl-13-oxo-1,2,3,4,4a,5,6,6a,6b,7,8,8a,9,10,11,12,12a,12b,13,14b-icosahydropicene-2-carboxamido)acetamido)acetate] | 7% | 20 ± 0.25 mm | 15 ± 0.16 mm | 15 ± 0.16 mm | 18 ± 0.15 mm | 30 ± 0.21 mm | 160 to 162 °C | 65.3% | weak effect | – | – | – | – | – | – | –
2 | CCCC(NC(=O)C(CC(C)C)NC(=O)OC(C)(C)C)C(=O)OC1CCC2(C)C(CCC3(C)C2C(=O)C=C2C4CC(C)(C(=O)NCC(=O)NCC(=O)OCC)CCC4(C)CCC23C)C1(C)C (stereo not drawn) [Compound 2, 11-(2-(2-Ethoxy-2-oxoethylamino)-2-oxoethylcarbamoyl)-4,4,6a,6b,8a,11,14b-heptamethyl-14-oxo-1,2,3,4,4a,5,6,6a,6b,7,8,8a,9,10,11,12,12a,14,14a,14b-icosahydropicen-3-yl 2-(2-(tert-Butoxycarbonylamino)-4-methylpentanamido)pentanoate] | – | 18 ± 0.14 mm | 17 ± 0.11 mm | 12 ± 0.82 mm | 15 ± 0.25 mm | 30 ± 0.13 mm | 169 to 171 °C | – | 92.63% | 7.7 ± 1.3 µg/mL (≈ 8.32 µM) | 70.3 ± 0.9 µg/mL (≈ 76 µM) | – | – | – | – | –
3 | CC1(C(=O)NCC(=O)NCC(=O)O)CCC2(C)CCC3(C)C(=CC(=O)C4C5(C)CCC(O)C(C)(C)C5CCC43C)C2C1 (stereo not drawn) [Compound 3, 2-(2-(10-Hydroxy-2,4a,6a,6b,9,9,12a-heptamethyl-13-oxo-1,2,3,4,4a,5,6,6a,6b,7,8,8a,9,10,11,12,12a,12b,13,14b-icosahydropicene-2-carboxamido)acetamido)acetic acid] | 2% | 16 ± 0.31 mm | 17 ± 0.32 mm | 17 ± 0.21 mm | 15 ± 0.18 mm | 30 ± 0.25 mm | 207 to 209 °C | – | 97.66% | 5.1 ± 0.7 µg/mL (≈ 8.72 µM) | 7.4 ± 0.4 µg/mL (≈ 12.7 µM) | 17 ± 0.17 mm | 12 ± 0.23 mm | – | – | –
4 | CCOC(=O)CNC(=O)CNC(=O)CNC(=O)CNC(=O)C1(C)CCC2(C)CCC3(C)C(=CC(=O)C4C5(C)CCC(O)C(C)(C)C5CCC43C)C2C1 (stereo not drawn) [Compound 4, Ethyl 1-(10-Hydroxy-2,4a,6a,6b,9,9,12a-heptamethyl-13-oxo-1,2,3,4,4a,5,6,6a,6b,7,8,8a,9,10,11,12,12a,12b,13,14b-icosahydropicen-2-yl)-1,4,7,10-tetraoxo-2,5,8,11-tetraazatridecan-13-oate] (X1-GGGG-OEt) | – | 13 ± 0.15 mm | 10 ± 0.13 mm | 11 ± 0.24 mm | 13 ± 0.16 mm | 29 ± 0.13 mm | 130 to 133 °C | – | – | 6.1 ± 0.4 µg/mL (≈ 8.39 µM) | 73 ± 1.4 µg/mL (≈ 100 µM) | 12 ± 0.23 mm | 15 ± 0.12 mm | 84.80% | – | –
5 | COC(=O)C(CC(C)C)NC(=O)CNC(=O)CNC(=O)C1(C)CCC2(C)CCC3(C)C(=CC(=O)C4C5(C)CCC(O)C(C)(C)C5CCC43C)C2C1 (stereo not drawn) [Compound 6, Methyl 2-(2-(2-(10-Hydroxy-2,4a,6a,6b,9,9,12a-heptamethyl-13-oxo-1,2,3,4,4a,5,6,6a,6b,7,8,8a,9,10,11,12,12a,12b,13,14b-icosahydropicene-2-carboxamido)acetamido)acetamido)-4-methylpentanoate] | – | – | – | – | – | – | 170 to 172 °C | weak cytotoxic effect | weak effect | – | – | – | – | – | – | –
6 | CC(C)CC(NC(=O)CNC(=O)CNC(=O)C1(C)CCC2(C)CCC3(C)C(=CC(=O)C4C5(C)CCC(O)C(C)(C)C5CCC43C)C2C1)C(=O)O (stereo not drawn) [Compound 7, 2-(2-(2-(10-Hydroxy-2,4a, 6a, 6b, 9,9, 12a-heptamethyl-13-oxo-1,2,3,4,4a, 5,6,6a, 6b, 7,8,8a, 9, 10, 11, 12, 12a, 12b, 13, 14b-icosahydropicene-2-carboxamido)acetamido)acetamido)-4-methylpentanoic Acid] | – | 15 ± 0.21 mm | – | – | 13 ± 0.14 mm | 30 ± 0.11 mm | 210 to 212 °C | – | 98.06% | 3.7 ± 0.2 µg/mL (≈ 5.3 µM) | 3 ± 1.1 µg/mL (≈ 4.3 µM) | 12 ± 0.14 mm | – | – | 96.76% | 3.3 ± 0.1 µg/mL (≈ 4.73 µM)
7 | COC(=O)C(CC(C)C)NC(=O)CNC(=O)CNC(=O)C1(C)CCC2(C)CCC3(C)C(=CC(=O)C4C5(C)CCC(OC(=O)CNC(=O)CNC(=O)OC(C)(C)C)C(C)(C)C5CCC43C)C2C1 (stereo not drawn) [Compound 8, Methyl 2-(2-(2-(10-(2-(2-(Tert-butoxycarbonylamino)acetamido)acetoxy)-2,4a,6a,6b,9,9,12a-heptamethyl-13-oxo-1,2,3,4,4a,5,6,6a,6b,7,8,8a,9,10,11,12,12a,12b,13,14b-icosahydropicene-2-carboxamido)acetamido)acetamido)-4-methylpentanoate] | – | 15 ± 0.16 mm | 13 ± 0.24 mm | 12 ± 0.22 mm | 14 ± 0.16 mm | 30 ± 0.17 mm | – | – | 97.10% | 6.9 ± 1.1 µg/mL (≈ 7.45 µM) | 60.7 ± 0.6 µg/mL (≈ 65.5 µM) | – | – | – | – | –
8 | CNC(C)C1CCC(N)C(OC2C(N)CC(N)C(OC3OCC(C)(O)C(NC)C3O)C2O)O1 (stereo not drawn) [GM, gentamicin, reference compound] | – | 26.3 ± 0.15 mm | 25.4 ± 0.18 mm | 27.2 ± 0.80 mm | 24.41 ± 0.18 mm | 24.4 ± 0.72 mm | – | – | – | – | – | 20.0 ± 0.30 mm | – | – | – | –
9 | CC(=O)N1CCN(c2ccc(OCC3COC(Cn4ccnc4)(c4ccc(Cl)cc4Cl)O3)cc2)CC1 (stereo not drawn) [KC, ketoconazole, reference compound] | – | – | – | – | – | – | – | – | – | – | – | – | 22.8 ± 0.10 mm | – | – | –

From publication PMC8346995, “Synthesis, Characterization, In Vitro Anticancer Potentiality, and Antimicrobial Activities of Novel Peptide–Glycyrrhetinic-Acid-Based Derivatives” (Molecules, 2021)
